Laboratory results from PubChem BioAssay (NCI).
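Tested at 5 concentrations; 48 h exposure; 96-well plates; endpoints linearly interpolated, else capped at highest concentration. The concentration for 50% growth inhibition is given as GI50. Definition used: TGI = concentration required for complete inhibition of growth.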

What was measured:
Test in all cases: NCI anticancer screen, dose series, 48 h
MDA-N = tested on: MDA-N
MCF7 breast = tested on: MCF7 breast
KM20L2 colon = tested on: KM20L2 colon
M19-MEL melanoma = tested on: M19-MEL melanoma
DMS 114 small cell lung = tested on: DMS 114 small cell lung
XF 498 CNS = tested on: XF 498 CNS
HOP-18 NSCLC = tested on: HOP-18 NSCLC
DLD-1 colon = tested on: DLD-1 colon

## Cc1[nH]c2ccccc2c1-c1cc(-c2cc(-c3c(C)[nH]c4ccccc34)nc(N)n2)nc(N)n1
MDA-N
  TGI: > 100 µM
MCF7 breast
  TGI: > 100 µM

## C=C1c2[nH]c3ccccc3c2C2C(CC)C1CCN2C (stereo not drawn)
MDA-N
  TGI: > 100 µM
MCF7 breast
  TGI: > 100 µM

## N#CC(C#N)N=Nc1ccc(Br)cc1
MCF7 breast
  GI50: 2.74 µM
  TGI: > 51.7 µM

## Nc1nc2cc3ccc(C4CC(O)C(CO)O4)cc3cc2c(=O)[nH]1 (stereo not drawn)
MCF7 breast
  GI50: > 100 µM
  TGI: > 100 µM

## CC(=O)C1C(=O)NC(=O)C1=O (stereo not drawn)
KM20L2 colon
  TGI: > 100 µM
M19-MEL melanoma
  TGI: > 100 µM
DMS 114 small cell lung
  TGI: > 100 µM
XF 498 CNS
  TGI: > 100 µM
HOP-18 NSCLC
  TGI: > 100 µM

## C[C@@H]1Cc2c([nH]c3ccccc23)[C@@H](c2c(F)cc(NC3CN(CCCF)C3)cc2F)N1CC(F)(F)CO
MCF7 breast
  TGI: 4.27 µM

## CC(=O)[O-].[Mn+3].[O-]c1ccccc1C=NCCN=Cc1ccccc1[O-]
KM20L2 colon
  GI50: 56.2 µM
  TGI: > 100 µM
M19-MEL melanoma
  GI50: 44.2 µM
  TGI: > 100 µM
HOP-18 NSCLC
  GI50: > 100 µM
  TGI: > 100 µM
DLD-1 colon
  GI50: 56.5 µM
  TGI: > 100 µM

## CC(=O)O[C@@H]1[C@@H](O)C2=C3[C@]4(C)[C@@H]1C(C)(C)C(=O)C[C@@H]4[C@]3(O)[C@H](OC(C)=O)[C@@]1(C[C@@H]1C)C2=O
MCF7 breast
  TGI: 47.4 µM

## CN(C)CCNC(=O)c1cccc2c(Nc3ccc(S(N)(=O)=O)cc3)c3ccccc3nc12
KM20L2 colon
  TGI: 13.3 µM
DMS 114 small cell lung
  TGI: 2.3 µM
XF 498 CNS
  TGI: 1.81 µM
HOP-18 NSCLC
  TGI: 9.2 µM

## COC(=O)CCC(=O)Nc1cc(Cl)ccc1Cl
KM20L2 colon
  TGI: > 100 µM
M19-MEL melanoma
  TGI: > 100 µM
DMS 114 small cell lung
  TGI: > 100 µM
XF 498 CNS
  TGI: > 100 µM
HOP-18 NSCLC
  TGI: > 100 µM
DLD-1 colon
  TGI: > 100 µM

## Cc1nc([C@H]2CC[C@H]3[C@@H]4CCC5=CC(=O)CC[C@]5(C)[C@H]4CC[C@]23C)cs1
MCF7 breast
  GI50: 2.78 µM
  TGI: > 100 µM

## COc1ccc(/C=C2\CC(C)CC3C2=NN(C(C)=O)C3c2ccc(OC)cc2)cc1 (stereo not drawn)
MCF7 breast
  GI50: 20 µM
  TGI: 63.3 µM

## Cc1nccc2c3ccc(OCc4cn(-c5ccc(Cl)cc5)nn4)cc3n(CCCc3ccccc3)c12
MCF7 breast
  GI50: 1.49 µM
  TGI: > 33.3 µM

## CCN1C2=NCCN2S(=O)(=O)c2ccccc21
MDA-N
  TGI: > 100 µM
MCF7 breast
  TGI: > 100 µM

## CS(=O)(=O)CCNCc1ccc(-c2ccc3ncnc(Nc4ccc(OCc5cccc(F)c5)c(C(F)(F)F)c4)c3c2)o1
MCF7 breast
  GI50: 3.84 µM
  TGI: 7.74 µM

## N#CSc1c[nH]c2ccc(/C=C/C(=O)/C=C(/C=C/c3ccc4[nH]cc(SC#N)c4c3)OB(F)F)cc12
MCF7 breast
  GI50: 0.458 µM
  TGI: 3.5 µM

## Fc1ccc(-c2ncn(C3CCNCC3)c2-c2ccnc(Oc3ccc(F)c(F)c3)n2)cc1
MCF7 breast
  GI50: 4.28 µM
  TGI: 8.27 µM

## O=c1cc(-c2ccccc2)oc2cc(O)cc(O)c12
KM20L2 colon
  TGI: 53.1 µM
M19-MEL melanoma
  TGI: 73.5 µM
DMS 114 small cell lung
  TGI: 58.2 µM
XF 498 CNS
  TGI: 44.1 µM

## COc1cc2c3c(n(CCCNCCCNCCCNCCCN)c(=O)c2cc1OC)-c1cc2c(cc1C3=O)OCO2
MCF7 breast
  GI50: 0.712 µM
  TGI: 2.47 µM

## CC(=O)N1c2ccccc2NC2=C(C(=O)N(Cc3ccccc3)C2(C)C)C1c1ccco1 (stereo not drawn)
MCF7 breast
  GI50: 0.368 µM
  TGI: > 25 µM

## Cc1nc(CN2CCCCC2)c(O)c(=O)[nH]1
MDA-N
  TGI: > 100 µM
MCF7 breast
  TGI: > 100 µM

## CCN(CC)CCCC(C)Nc1nc(C)cc(Nc2ccc3nc(C)cc(N)c3c2)n1 (stereo not drawn)
MCF7 breast
  GI50: 31.2 µM
  TGI: 78.3 µM

## O=[N+]([O-])/C=C/c1cc2ccccc2[nH]1
MDA-N
  TGI: 12.1 µM
MCF7 breast
  TGI: 13.1 µM

## CS(=O)(=O)Nc1cccc(-c2cc(-c3ccccc3Cl)c(C#N)c(N)n2)c1
MCF7 breast
  GI50: 0.478 µM
  TGI: 14.3 µM

## CCCCCCCCCCCCCCCC[N+](C)(CCO)Cc1cnc[nH]1 (stereo not drawn)
MCF7 breast
  GI50: 1.87 µM
  TGI: 13.9 µM

## O=S(=O)(SCc1ccccc1)C(c1ccccc1)c1ccccc1
KM20L2 colon
  TGI: 40.5 µM
M19-MEL melanoma
  TGI: > 100 µM
DMS 114 small cell lung
  TGI: 48.1 µM
XF 498 CNS
  TGI: > 100 µM
DLD-1 colon
  TGI: 55.4 µM

## COc1ccc(C[C@@H]2NC[C@@H](O)[C@@H]2OC(C)=O)cc1
KM20L2 colon
  TGI: > 100 µM
M19-MEL melanoma
  TGI: > 100 µM
DMS 114 small cell lung
  TGI: > 100 µM
HOP-18 NSCLC
  TGI: 6.35 µM
DLD-1 colon
  TGI: 13.8 µM

## COC1=CC23CCCN2CCc2cc4c(cc2C3C1O)OCO4 (stereo not drawn)
MCF7 breast
  TGI: > 100 µM

## CCn1cc(-c2ccnc3[nH]ccc23)c(-c2cccc(NC(=O)Nc3ccc(OCc4ccccc4)cc3)c2)n1
MCF7 breast
  GI50: 8.15 µM
  TGI: > 25 µM

## CN1C(=O)[C@@H](NC(=O)[C@H](CCC(F)(F)F)[C@H](CCC(F)(F)F)C(N)=O)N=C(c2ccccc2)c2ccccc21
MCF7 breast
  GI50: 33.4 µM
  TGI: > 100 µM

## CN(C)CCSc1cccc(-c2cc(-c3cccc(SCCN(C)C)c3)nc(SCCN(C)C)n2)c1
KM20L2 colon
  TGI: 3.46 µM
DLD-1 colon
  TGI: 25.9 µM

## S=C(Nc1ccc(Cl)cc1)Nc1ccc(-c2nc3ccccc3o2)cc1
MCF7 breast
  GI50: 17.6 µM
  TGI: 51.4 µM

## COc1ccc(NC(=O)CC/C(CC(=O)C(C)(C)C)=N\NC(=O)C(N)=O)cc1
KM20L2 colon
  TGI: > 100 µM
M19-MEL melanoma
  TGI: > 100 µM
DMS 114 small cell lung
  TGI: > 100 µM
DLD-1 colon
  TGI: > 100 µM
